According to US9301933B2, “Compositions and methods for treating presbyopia, mild hyperopia, and irregular astigmatism” (ALLERGAN, INC., priority 2011, dated 2016):
Where “and” joins values, the source holds several entries; their conditions need not be identical. Identical values can stand only once.

Experiments:
[1] = test system: patients' eyes; details: cited from earlier work
[2] = test system: pupil of patients' eyes; assay: Pupillary diameter in medium lighting (mesopic) conditions, infrared camera device; assay type: in vivo, human; details: Example 3
Method: (§1) A group of 10 patients (20 eyes) considered emmetropes or slightly hyperopic (Spherical equivalent from +0.88 D to −0.13 D with less than 1.00 D of astigmatism) was treated with a composition of the invention.
(§2) One drop containing 1% pilocarpine and 0.025% oxymetazoline w/w dissolved in a solution of 0.5% sodium chloride, with carboxymethyl cellulose as a viscosant and benzalkonium chloride as preservative were instilled once into the right eye, and the same solution containing 1% pilocarpine without oxymetazoline was instilled once into the left eye and the same measurements were taken one hour, four hours and six hours later. (Each patient acted as its own control) (Table 2). […]

[3] = test system: eyes of presbyopic (emmetropic or slightly hyperopic) patients; assay: Refractive power of each eye (sphere, cylinder, spherical equivalent); assay type: in vivo, human; details: Example 3
Excerpt: The following terms are ophthalmic terms commonly used by those of skill in the art. “OD” stands for oculus dexter and means right eye. “OS” stands for oculus sinister and means left eye. “UDVA” stands for unaided distance visual acuity. “UNVA” stands for unaided near visual acuity. “Sph” is the sphere, or the amount of magnification/demagnification that the eye needs to see properly. A negative sphere indicates myopia, and a positive sphere indicates hyperopia. “Cyl” is the cylinder, which is a measure of astigmatism. “Pre” indicates the condition of the eye prior to treatment, 1 h indicates the condition of the eye 1 hour after treatment, 4 h indicates the condition of the eye 4 hours after treatment, and 6 h indicates the condition of the eye 6 hours after treatment. “Sph Eq” is the spherical equivalent.
A group of 10 patients (20 eyes) considered emmetropes or slightly hyperopic (Spherical equivalent from +0.88 D to −0.50 D with less than 1.00 D of astigmatism) was treated with a composition of the invention.
Three drops containing 1% pilocarpine and 0.125% oxymetazoline w/w dissolved in a solution of 0.5% sodium chloride, with carboxymethyl cellulose as a viscosant and benzalkonium chloride as preservative were instilled into each eye three times separated 5 minutes each, and the same measurements were taken one hour, four hours and six hours later (Table 1). As shown in Table 1 and FIGS. 1-2, there was an average gain of 3.7 units of unaided near visual acuity while losing 0.7 lines of uncorrected distance visual acuity at one hour after instillation. […] The improvement in near vision was more pronounced in younger patients and the lack of detriment of the distance vision (FIG. 2) was more marked in hyperopic patients. […]
After a two-week washout period, five of the patients from example 1 were treated with a combination of 1% pilocarpine and 0.015% meloxicam dissolved in a solution of 0.5% sodium chloride in water plus carboxymethyl cellulose as viscosant and benzalkonium chloride as a preservative, and the same measurements in example 1 were taken at one hour, four hours, and eight hours later. […]

[4] = test system: eyes of presbyopic (emmetropic or slightly hyperopic) patients; assay: Unaided distance visual acuity (UDVA), Snellen chart; assay type: in vivo, human; details: Example 3
Method: as §1, §2

[5] = test system: eyes of presbyopic (emmetropic or slightly hyperopic) patients; assay: Unaided near visual acuity (UNVA) at 40 centimeters, hand-held Rosembaum chart, Jaeger notation; assay type: in vivo, human; design: key to 1 h UNVA: J1+ is fine “normal” near vision (equivalent to 20/20 in Snellen terms); J1 is good near vision (equivalent to 20/25 in Snellen terms); J2 and J3 are fair and functional near vision, respectively (equivalent to 20/30 and 20/40, respectively, in Snellen terms); J2 and J3 are fair and functional near vision, respectively (equivalent to 20/30 and 20/40, respectively, in Snellen terms); details: Example 3
Method: Measurements on the Jaeger scale, a near vision scale, are used and described herein. […]
as §1, §2

In the case of CC[C@@H]1C(=O)OC[C@@H]1Cc1cncn1C [Pilocarpine alone, pilocarpine], the decrease in hyperopia ([1]; one patient, 0.3% topical pilocarpine, U.S. Pat. Nos. 6,291,466 and 6,410,544) is listed as “less than half”, the tolerability ([1]; topical concentrations above 0.5%) is listed as “not tolerated due to side effects such as red eyes, ocular pain, brow ache, and headache” and the “effect in the accommodation of the eye” value ([1]; topical concentrations below 0.5%) is listed as “minimal effect”. The “1 h Pupil” value ([2]; OD 1% pilocarpine + 0.025% oxymetazoline, OS 1% pilocarpine alone, single eyes, 1 h) was 2.1 and 2.3 and 2.2 and 2.4 and 2.5, the “4 h Pupil” value ([2]; OD 1% pilocarpine + 0.025% oxymetazoline, OS 1% pilocarpine alone, single eyes, 4 h) was 2.7 and 2.8 and 2.5 and 2.9 and 2.4 and 3 and 2.6 and 3.1 and the “6 h Pupil” value ([2]; OD 1% pilocarpine + 0.025% oxymetazoline, OS 1% pilocarpine alone, single eyes, 6 h) was 4.9 and 4.7 and 4.4 and 4.2 and 4.1. The “1 h Pupil, AVERAGE” value ([2]; average per treatment, 1 h) was 2.05, the “4 h Pupil, AVERAGE” value ([2]; average per treatment, 4 h) was 2.52 and the “6 h Pupil, AVERAGE” value ([2]; average per treatment, 6 h) was 4.13. The induced astigmatism [3] was “seemed to induce more astigmatism”, the “1 h Cyl, AVERAGE” value ([3]; average per treatment, 1 h) was −0.59 and the “1 h Sph Eq, AVERAGE” value ([3]; average per treatment, 1 h) was −0.61. For the same molecule, the “1 h Sph, AVERAGE” value ([3]; average per treatment, 1 h) was −0.32, the “4 h Cyl, AVERAGE” value ([3]; average per treatment, 4 h) was −0.59 and the “4 h Sph Eq, AVERAGE” value ([3]; average per treatment, 4 h) was −0.43. The “4 h Sph, AVERAGE” value ([3]; average per treatment, 4 h) was −0.14, the “6 h Cyl, AVERAGE” value ([3]; average per treatment, 6 h) was −0.43 and the “6 h Sph Eq, AVERAGE” value ([3]; average per treatment, 6 h) was 0.35. The “6 h Sph, AVERAGE” value ([3]; average per treatment, 6 h) was 0.57, the “decrease in distance vision, compared with pilocarpine + oxymetazoline” value ([4]; FIG. 4, at the 1 and 4 hour time points) was “more decrease in distance vision” and the “1 h UDVA” value ([4]; one drop once, OD 1% pilocarpine + 0.025% oxymetazoline, OS 1% pilocarpine alone, single eyes, 1 h) was 20/50 and 20/30 and 20/40. For the same molecule, the “4 h UDVA” value ([4]; one drop once, OD 1% pilocarpine + 0.025% oxymetazoline, OS 1% pilocarpine alone, single eyes, 4 h) was 20/40 and 20/20 and 20/30 and 20/25 and 20/50, the “6 h UDVA” value ([4]; one drop once, OD 1% pilocarpine + 0.025% oxymetazoline, OS 1% pilocarpine alone, single eyes, 6 h) was 20/30 and 20/20 and 20/25 and the “improvement in near vision, compared with pilocarpine + oxymetazoline” value ([5]; FIG. 3) was “smaller and tended to wear out earlier”. For the same molecule, the “1 h UNVA” value ([5]; one drop once, OD 1% pilocarpine + 0.025% oxymetazoline, OS 1% pilocarpine alone, single eyes of 10 patients, 1 h) was “J1 and J1+ and J2 and J3”.

In the case of O=C(O)Cc1ccccc1Nc1c(Cl)cccc1Cl [diclofenac], the “serious side effects (Congdon et al.)” value ([1]; topical ophthalmic use) is given as “persistent epithelial defects, corneal melting, and corneal perforation”.

For Brc1c(NC2=NCCN2)ccc2nccnc12 [brimonidine], the “side effects of topical administration” value ([1]; known to those in the art) is given as “lightheadedness, dizziness, dry mouth, tachycardia, and stomach upset”.
